According to US11181533B2, “Diagnosing and treating Alzheimer's disease” (DIGNITY HEALTH, priority 2013, dated 2021):
Like-named read-outs stand apart in the source and are kept apart here. No end group written: not given here.

Assays:
Aβ induced cell death = assay: Protection against Aβ induced cell death; assay type: cell-based; conditions: by enhancing mitochondrial function
[1] = test system: SAMP8 mice and APP transgenic mice; conditions: intranasal administration, cited from earlier work

## Pituitary Adenylate Cyclase Activating Polypeptide (HSDGIFTDSYSRYRKQMAVKKYLAAVLGKRYKQRVKNK; ends and bridges not checked; UniProt P18509 132-169, looked up) [PACAP, small peptide with either 38 amino acids in full length form (PACAP-38), or 27 amino acids in short form (PACAP-27); neurotrophin]
Aβ induced cell death
  protection against Aβ induced cell death: protects against Aβ induced cell death
[1]; APP transgenic mice
  Novel object recognition: enhances Novel object recognition
[1]; SAMP8 mice
  Novel object recognition: enhances Novel object recognition
